Laboratory results as given in patent publication US9896730B2, “Use of EMT gene signatures in cancer drug discovery, diagnostics, and treatment” (OSI Pharmaceuticals, LLC, priority 2011, dated 2018).
“Also recorded” adds a separate entry of the source.

Key:
[1] = tested on: H358 cells; test: 88 gene EMTGS qPCR and EMT characterization, ligand-driven H358 EMT model; type: cell-based, human; details: 7 day ligand stimulation
Protocol: Ligand-driven EMT models: NCI-H358 cells were cultured in RPMI medium (Gibco #21870) with 10% fetal bovine serum (Sigma), 1 mM sodium pyruvate (Gibco #11360), 2 mM L-glutamine (Gibco #25030) and 10 mM HEPES (Gibco #15630). For ligand treatment, cells were seeded in normal growth medium and stimulated the following day (Day 0) with 100 ng/ml HGF (Peprotech #100-39), 100 ng/ml OSM (R and D systems, 295-OM), 2.5 ng/ml TGFβ1 (EMD Biosciences #616450) or combinations of the three. Medium was changed and fresh ligand was added on day 4 and day 6 after stimulation, such that samples were stimulated with fresh ligand 24 hrs prior to RNA isolation. For analysis containing drug treatments, DMSO or Drug was added to the samples at time of ligand treatments. Samples were taken for RNA Day 1, Day 4 and Day 7. NCI-H1650 and NCI-H292 cells were grown in RPM medium (Gibco #21870) with 10% fetal bovine serum (Sigma), 1 mM sodium pyruvate (Gibco #11360), 2 mM L-glutamine (Gibco #25030) and 10 mM HEPES (Gibco #15630). CFPAC1 cells (ATCC #CRL-1918) were cultured in DMEM (Gibco #11960) supplemented with 10% FBS (Sigma), 2 mM L-glutamine (Gibco #25030). A549 cells were cultured in MEM with 10% fetal bovine serum, 2 mM L-glutamine and 1 mM sodium pyruvate. Cells were treated with ligand for 7 days and harvested as described for NCI-H358 cells in [249] unless otherwise noted. […]
(§1) Normalization genes used with 88 gene EMTGS for RT-PCR Analysis: The genes GTF2B, GAPDH, SDHA, and ACTB were chosen as normalization genes in qPCR analysis. […] The Delta Ct is then calculated as follows: Delta Ct=(Ct value of Gene X)−(Geometric mean of all normalization genes) For calculation of fold change between a control sample and a treated sample: Control sample=2^(−Delta Ct) Treated sample=2^(−Delta Ct) Fold change=Treated sample/Control sample Values below 1 (ratios) are converted to fold change by multiplying by −(1/X)

[2] = tested on: H358 cells; test: Cell proliferation (Cell Titer Glo): erlotinib sensitivity in H358 EMT models; type: cell-based, human; details: ligand- and snai1-induced EMT
Protocol: (§2) Measurement of Cell Proliferation: Cell proliferation was determined using the Cell Titer Glo assay (Promega Corporation, Madison, Wis.). Cell lines were seeded at a density of 3000 cells per well in a 96-well plate. For assessment of drug effects on proliferation, 24 hours after plating, cells were dosed with varying concentrations of drug, either as a single agent or in combination. The signal for Cell Titer Glo was determined 72 hours after dosing.
(§3) Ligand-driven EMT models: NCI-H358 cells were cultured in RPMI medium (Gibco #21870) with 10% fetal bovine serum (Sigma), 1 mM sodium pyruvate (Gibco #11360), 2 mM L-glutamine (Gibco #25030) and 10 mM HEPES (Gibco #15630). For ligand treatment, cells were seeded in normal growth medium and stimulated the following day (Day 0) with 100 ng/ml HGF (Peprotech #100-39), 100 ng/ml OSM (R and D systems, 295-OM), 2.5 ng/ml TGFβ1 (EMD Biosciences #616450) or combinations of the three. Medium was changed and fresh ligand was added on day 4 and day 6 after stimulation, such that samples were stimulated with fresh ligand 24 hrs prior to RNA isolation. For analysis containing drug treatments, DMSO or Drug was added to the samples at time of ligand treatments. Samples were taken for RNA Day 1, Day 4 and Day 7. […]

[3] = tested on: H1650 cells; test: Cell proliferation (Cell Titer Glo): erlotinib sensitivity in H1650 EMT model; type: cell-based, human; details: H1650 cells in vitro, before or after EMT induction
Protocol: as §2, §3

[4] = tested on: advanced, treatment-refractory NSCLC; details: Phase III, monotherapy, patients with advanced; cited from earlier work
[5] = tested on: lung tumors; details: adenocarcinoma patients versus squamous cell carcinoma patients; cited from earlier work
[6] = tested on: A549 cells; test: 88 gene EMTGS qPCR, A549 cells treated with TNF and TAK1 siRNA; type: cell-based, human; details: relative to untreated cells
Protocol: as §3, §1

## TGFβ: transforming growth factor β, EMT-inducing ligand
[1]
  extent of EMT induced (morphology, biomarker, phenotypic changes): more advanced EMT

## C#Cc1cccc(Nc2ncnc3cc(OCCOC)c(OCCOC)cc23)c1 [erlotinib, [6,7-bis(2-methoxyethoxy)-4-quinazolin-4-yl]-(3-ethynylphenyl)amine]
[2]
  sensitivity to erlotinib after EMT induction: decreased sensitivity; also recorded: decreases
[3]
  sensitivity to erlotinib: not sensitive
[4]
  disease progression: delayed disease progression
  survival: significantly prolonged survival
  worsening of lung cancer-related symptoms: delayed worsening
[5]
  clinical response: respond better

## TNFa
[6]
  effect on epithelial genes of 88 gene EMTGS: downregulation
  effect on mesenchymal genes of 88 gene EMTGS: upregulation

## HGF: hepatocyte growth factor, EMT-inducing ligand
[1]
  extent of EMT induced (morphology, biomarker, phenotypic changes): partial EMT

B1: OSM: oncostatin M, EMT-inducing ligand (protein, UniProt P13725 26-221, looked up)
Oncostatin-M: AAIGSCSKEYRVLLGQLQKQTDLMQDTSRLLDPYIRIQGLDVPKLREHCRERPGAFPSEETLRGLGRRGFLQTLNATLGCVLHRLADLEQRLPKAQDLERSGLNIEDLEKLQMARPNILGLRNNIYCMAQLLDNSDTAEPTKAGRGASQPPTPTPASDAFQRKLEGCRFLHGYHRFMHSVGRVFSKWGESPNRSRR
[1]
  extent of EMT induced (morphology, biomarker, phenotypic changes): partial EMT
